Among the test systems are MALME-3M melanoma; U251 CNS; OVCAR-4 ovarian; PC-3 prostate; RPMI-8226 leukemia; MDA-MB-435; HOP-92 NSCLC; NCI/ADR-RES ovarian; CAKI-1 renal.
Assay in all cases: growth of human tumour cells (NCI), 48 h

This note sets out measurements from PubChem BioAssay (NCI).

Molecules are shown by their SMILES.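 Exposure lasted 48 hours, with cells grown in 96-well plates and compounds tested at five concentrations. GI50 = concentration required for 50% inhibition of growth. TGI denotes the concentration required for complete inhibition of growth.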

Take `CC(=O)[O-].[Mn+3].[O-]c1ccccc1C=NCCNCCN=Cc1ccccc1[O-]`: the values for the GI50 in the test with MALME-3M melanoma, in the test with U251 CNS and in the test on OVCAR-4 ovarian were 58.1 µM, over 100 µM and over 100 µM, respectively. The TGI in the test with MALME-3M melanoma, in the test with U251 CNS and with OVCAR-4 ovarian was over 100 µM throughout.
Take `C1CC2CN(CCCN3CCOCC3)C(C1)O2` (centres undefined): the TGI with MALME-3M melanoma, with PC-3 prostate, with RPMI-8226 leukemia, in the test with MDA-MB-435, with U251 CNS and with HOP-92 NSCLC was over 100 µM throughout. For the same molecule, the TGI in the test on NCI/ADR-RES ovarian, in the test on OVCAR-4 ovarian and in the test with CAKI-1 renal was over 100 µM in each case.
Turning to `CN(C)c1nc2ccccc2c2c1c1c(n2Cc2ccccc2)-c2ccccc2C1=O`, the GI50 in the test on MALME-3M melanoma was over 100 µM; in the test with RPMI-8226 leukemia, over 100 µM; in the test on MDA-MB-435, over 100 µM; with U251 CNS, over 100 µM; in the test on HOP-92 NSCLC it was 13 µM; with NCI/ADR-RES ovarian it was over 100 µM. Further, the figures for the GI50 in the test with OVCAR-4 ovarian and in the test with CAKI-1 renal were 31.3 µM and over 100 µM, respectively. In addition, the TGI in the test with MALME-3M melanoma, in the test on RPMI-8226 leukemia, in the test with MDA-MB-435, with U251 CNS, in the test with HOP-92 NSCLC and in the test on NCI/ADR-RES ovarian was over 100 µM in each case. In addition, the TGI in the test on OVCAR-4 ovarian and in the test on CAKI-1 renal was over 100 µM throughout.
With `N.N.N.N.N.O=[N+]([O-])[O-].[Co+3].[O-][Cl+3]([O-])([O-])[O-]`, the GI50 with MALME-3M melanoma, in the test on RPMI-8226 leukemia, with U251 CNS, in the test with HOP-92 NSCLC and with OVCAR-4 ovarian was over 100 µM each time. Moreover, the TGI in the test with MALME-3M melanoma, in the test with RPMI-8226 leukemia, in the test on U251 CNS, in the test with HOP-92 NSCLC and in the test on OVCAR-4 ovarian was over 100 µM each time.
As to `C[C@]12CC[C@H](O)CC1=CC[C@@H]1C2CC[C@]2(C)Nc3c(cnn3-c3ccccc3)CC12` (some centres undefined), the TGI in the test with MALME-3M melanoma came to 36 µM; with RPMI-8226 leukemia, 1.49 µM; in the test on U251 CNS, 14.9 µM; with OVCAR-4 ovarian, 36.6 µM; with CAKI-1 renal, 24.8 µM.
Take `C=CC(=O)Nc1cc(N2CCN(CC)CC2)ccc1Nc1cc(N(C)C(=O)Nc2c(Cl)c(OC)cc(OC)c2Cl)ncn1`: the GI50 with MALME-3M melanoma is 5.06 µM; in the test on PC-3 prostate, 5.05 µM; with RPMI-8226 leukemia, 2.37 µM; in the test with MDA-MB-435, 3.47 µM; in the test with HOP-92 NSCLC, 4.94 µM; with NCI/ADR-RES ovarian, 20.5 µM. In addition, the GI50 with OVCAR-4 ovarian is 5.35 µM; in the test with CAKI-1 renal, 11.1 µM. Moreover, the TGI with MALME-3M melanoma was 19.3 µM; in the test on PC-3 prostate it was 20.8 µM; in the test on RPMI-8226 leukemia it was 7.22 µM; with MDA-MB-435, 14.4 µM; with HOP-92 NSCLC it was 21.7 µM; in the test with NCI/ADR-RES ovarian, 70.5 µM. The TGI with OVCAR-4 ovarian was 22.9 µM; with CAKI-1 renal, 23.1 µM.
For the molecule `CCCCCCCCNCCC[C@@H](C)[C@H]1CC[C@H]2[C@@H]3[C@H](OCCCN)C[C@H]4C[C@H](OCCCN)CC[C@]4(C)[C@H]3C[C@H](OCCCN)[C@]12C`, the GI50 in the test on PC-3 prostate was 5.58 µM; with RPMI-8226 leukemia, 1.27 µM; in the test with MDA-MB-435 it was 0.768 µM; in the test with U251 CNS, 2.23 µM; in the test with HOP-92 NSCLC, 0.429 µM; in the test with NCI/ADR-RES ovarian, 1.93 µM. For the same molecule, the GI50 in the test with OVCAR-4 ovarian is 8.27 µM; in the test with CAKI-1 renal, 3.09 µM. Besides, the TGI in the test with PC-3 prostate is over 49.3 µM; with RPMI-8226 leukemia, 3.49 µM; with MDA-MB-435, 2.5 µM; in the test with U251 CNS, 6.32 µM; in the test on HOP-92 NSCLC, 8.46 µM; with NCI/ADR-RES ovarian, 5.27 µM. The TGI in the test with OVCAR-4 ovarian worked out at 29.4 µM; with CAKI-1 renal, 15.4 µM.
For the molecule `O=c1[nH]c2ccccc2n1CCCN1CCC(n2c(=O)[nH]c3cc(Cl)ccc32)CC1`, the TGI in the test on MALME-3M melanoma is 32 µM; in the test with PC-3 prostate it was 43.9 µM; in the test on RPMI-8226 leukemia it was 57.8 µM; with MDA-MB-435, 29.7 µM; in the test on HOP-92 NSCLC, 58.2 µM; with NCI/ADR-RES ovarian it was 60.8 µM. The TGI was found to be 37.9 µM in the test on OVCAR-4 ovarian and 50.6 µM with CAKI-1 renal.
Regarding `Cc1cccc(C)c1NC(=O)CCc1nc(=S)[nH][nH]1`, the TGI with MALME-3M melanoma, with RPMI-8226 leukemia, in the test with U251 CNS, in the test on HOP-92 NSCLC, with OVCAR-4 ovarian and in the test on CAKI-1 renal was over 100 µM in each case.
Consider `CC1CCSC(N(C(=O)N(C)c2ccccc2)c2ccccc2)=N1` (centres undefined), for which the TGI in the test on MALME-3M melanoma, with RPMI-8226 leukemia, in the test with U251 CNS and with CAKI-1 renal was over 100 µM each time.
As for `NCCOCCOCCNc1nc(-c2ccc(Cl)cc2)nc(N2CCN(c3ccccn3)CC2)n1`, the GI50 in the test with MALME-3M melanoma is 2.18 µM; in the test with PC-3 prostate, 1.89 µM; in the test on MDA-MB-435, 1.78 µM; in the test on HOP-92 NSCLC, 2.36 µM; with NCI/ADR-RES ovarian, 3.66 µM; in the test with OVCAR-4 ovarian, 2.78 µM. Further, the GI50 with CAKI-1 renal is 2.01 µM. Also, the TGI in the test with MALME-3M melanoma was found to be 4.18 µM; in the test on PC-3 prostate, 3.92 µM; in the test with MDA-MB-435, 3.49 µM; in the test on HOP-92 NSCLC, 7.57 µM; with NCI/ADR-RES ovarian, 16 µM; in the test on OVCAR-4 ovarian it was 10.5 µM. Besides, the TGI with CAKI-1 renal was 5.24 µM.
With `COC(=O)C1=C(C(=O)OC)C2(C)C=CC1O2` (centres undefined), the TGI in the test with MALME-3M melanoma was 9.26 µM; with PC-3 prostate it was 37.6 µM; in the test on RPMI-8226 leukemia, 4.04 µM; with MDA-MB-435, 33.2 µM; in the test with U251 CNS, 31.9 µM; in the test with HOP-92 NSCLC, 24.4 µM. In addition, the TGI was determined as 37.6 µM in the test with NCI/ADR-RES ovarian and 27.2 µM in the test on OVCAR-4 ovarian.
Take `C#Cc1c(C)c(/C=C/C(C)=C/C(=O)OC)n(C)c1C`: the TGI in the test on MALME-3M melanoma is over 100 µM; with RPMI-8226 leukemia it was over 100 µM; in the test with U251 CNS, over 100 µM; with HOP-92 NSCLC it was 85.1 µM; in the test with OVCAR-4 ovarian, over 100 µM; with CAKI-1 renal, over 100 µM.
`CN1CCc2c1nc(-c1ccc(Cl)cc1)c1c2N(C)CC1`: the TGI is over 100 µM in the test on MALME-3M melanoma; 37.1 µM with RPMI-8226 leukemia; 22.5 µM in the test on U251 CNS; over 100 µM in the test with OVCAR-4 ovarian; 29.9 µM in the test on CAKI-1 renal.
